Test results from article PMC6154683, “High-Throughput Determination of Sodium Danshensu in Beagle Dogs by the LCMS/MS Method, Employing Liquid-Liquid Extraction Based on 96-Well Format Plates” (Molecules : A Journal of Synthetic Chemistry and Natural …, 2017).

Assays:
[1] = Pharmacokinetic and bioavailability study in beagle dogs after intravenous and oral administration (plasma, LC-MS/MS); type: in vivo; details: for C0: mean ± SD
Experimental: All the studies on animals were done in accordance with the Guidelines for the Care and Use of Laboratory Animals. Beagle dogs (~10 kg) were purchased from the Shanghai Slack Experimental Animal Co., Ltd. (Shanghai, China) and acclimated in the laboratory for 1 week prior to the experiments, housed in separate cages under room temperature with a 12 h light/dark cycle, and free access to standard diet and water. All the beagle dogs were fasted for 12 h before the experiments with free access to water.
For pharmacokinetics study, 24 beagle dogs were randomly divided into four groups (n = 6). Four different dosages (5 mg/kg, 10 mg/kg, 15 mg/kg I.V., 60 mg/kg P.O.) were designed and were assigned randomly to the four groups of beagle dogs. Blood samples (500 μL) were withdrawn from the foreleg vein into heparinized tubes in strict accordance with the time points of the protocol made in advance. Then after centrifuging at 8000 rpm for 10 min, the supernatant plasma sample was transferred into another tube and frozen at −80 °C until analysis. The time points for blood sampling were listed as follows. Pre-dose and subsequently at 0, 0.03, 0.08, 0.17, 0.33, 0.67, 1, 1.5, 2, 3, 4, 6, 8, and 12 h were used for the three intravenous injection groups, and pre-dose, 0.08, 0.17, 0.25, 0.5, 0.75, 1, 1.5, 2, 3, 4, 6, 8, and 12 h were used for the oral administration group.
For plasma sample preparation, the LLE in 96-well format plate was used. Prior to analysis, all frozen plasma samples, calibration standards, and quality control samples were thawed and allowed to equilibrate at room temperature. The samples were vortexed adequately using a vortex mixer (Beijing Targintech Co. Ltd., Beijing, China) before pipetting. Samples were prepared using LLE in 96-well deep format plate (2 mL, Corning Life Sciences—Axygen Inc., Union City, CA, USA). An automatic multichannel pipette (INTEGRA Biosciences AG, Zizers, Switzerland) was used for liquid transfer steps. Aliquots of 100 μL plasma were transferred into the 96-well deep format plate. Aliquots of 10 μL of IS solution (25 ng/mL) were added to each well except for the well designated for the double blank plasma. Then 20 μL of 2 mol/L hydrochloric acid was added to each well of the plate, and vortexed for 30 s for mixing. The mixed sample was then extracted with 1000 μL methyl tert-butyl ether by vortex-mixing for 3 min in a platform shaker (Grant, Cambridge, UK). After centrifugation at 12,000 rpm for 10 min, 800 μL of the upper organic layer was transferred from the original sample plates into the respective positions of the new 2.0 mL deep 96-well plates. Extracts were concentrated to dryness by an automated concentration evaporation system at 30 °C under a gentle stream of nitrogen (Turbo Vap 96, Biotage AB, Uppsala, Sweden) for 15 min. After drying, the residue was reconstituted with 100 μL of methanol–water (50:50, v/v) and was then vortexed for 3 min and centrifuged for 10 min at 12,000 rpm. A 5 μL aliquot of the supernatant was injected into the LC-MS/MS system for analysis.
The pharmacokinetic analysis was performed using the non-compartmental model analysis. The concentration versus time data and the pharmacokinetic parameters including Cmax, t1/2, Tmax (h), AUC0-t, AUC0-12, MRT, CL, and Vd were assessed via non-compartmental analysis using the BAPP software (version 2.0, Center of Drug Metabolism and Pharmacokinetics, China Pharmaceutical University, Nanjing, china). The absolute bioavailability (%F) of sodium danshensu was estimated via AUC0→∞ values of oral and intravenous administration.

[2] = Stability of sodium danshensu in beagle dog plasma (QC samples); type: in vitro ADME; details: for Measured (mean ± SD): n = 3; for long-term stability in plasma (in words): beagle dog plasma stored at −80 °C for 20 days
Experimental: The analyte stability determinations comprised ambient temperature stability, long-term stability, autosampler stability, and freeze-thaw cycle stability, which were evaluated by analyzing two QC levels in triplicate. The QC samples were analyzed after storage at room temperature for 2 h, at −80 °C for 20 days, and in the autosampler at room temperature for at least 24 h after extraction and after three freeze-thaw cycles, which consisted of storage at −80 °C for a minimum of 12 h followed by thawing at room temperature.

[3] = dog, plasma, IV 5 mg/kg, beagle dogs
[4] = dog, plasma, IV 10 mg/kg, beagle dogs
[5] = dog, plasma, IV 15 mg/kg, beagle dogs
[6] = dog, plasma, PO 60 mg/kg, beagle dogs

With O=C([O-])[C@H](O)Cc1ccc(O)c(O)c1.[Na+] [sodium danshensu, sodium D-(+)-β-(3,4-dihydroxyphenyl) lactate] the AUC(0-inf) [1, 3] was 6870 ± 780 ng·h/mL, the AUC(0-t) [1, 3] was 6710 ± 810 ng·h/mL and the MRT [1, 3] was 0.88 ± 0.41 h. For the same compound, the Vd [1, 3] was 6.63 ± 3.49 L, the clearance [1, 3] was 123 mL/min and the half-life [1, 3] was 2.3 ± 1.23 h. The C0 [1, 3] was 36600 ± 3840 ng/mL, the AUC(0-inf) [1, 4] was 8460 ± 430 ng·h/mL and the AUC(0-t) [1, 4] was 8270 ± 380 ng·h/mL. It also gave an MRT [1, 4] of 1.08 ± 0.53 h, a Vd [1, 4] of 12.8 ± 5.5 L and a clearance [1, 4] of 197 mL/min. It also gave a half-life [1, 4] of 2.32 ± 1.33 h, a C0 [1, 4] of 46700 ± 15200 ng/mL and an AUC(0-inf) [1, 5] of 17800 ± 3040 ng·h/mL. The AUC(0-t) [1, 5] was 17800 ± 3030 ng·h/mL, the MRT [1, 5] was 0.73 ± 0.05 h and the Vd [1, 5] was 6.36 ± 1.48 L. The clearance [1, 5] was 144 mL/min, the half-life [1, 5] was 1.64 ± 0.39 h and the C0 [1, 5] was 79200 ± 18900 ng/mL. For the same compound, the AUC(0-inf) [1, 6] was 22700 ± 2570 ng·h/mL, the AUC(0-t) [1, 6] was 22200 ± 2480 ng·h/mL and the Cmax [1, 6] was 7920 ± 1770 ng/mL. It also gave an MRT [1, 6] of 4.23 ± 0.2 h, a Tmax [1, 6] of 2.83 ± 0.41 h and a half-life [1, 6] of 1.84 ± 0.29 h. The bioavailability ([1]; dog, plasma, beagle dogs, estimated via AUC0→∞ of oral (60 mg/kg) and intravenous administration, read-out: mean absolute bioavailability (%F)) was 34.8%, the concentration at 1.5 h ([1]; one beagle dog plasma sample, 1.5 h after intravenous 10 mg/kg, read-out: assayed plasma concentration) was 930 ng/mL and the “RE (relative error vs spiked)” value ([2]; ambient temperature 2 h, spiked 20 ng/mL) was 5.0%. The “Measured (mean ± SD)” value ([2]; ambient temperature 2 h, spiked 20 ng/mL, beagle dog plasma) was 21.00 ± 1.42 ng/mL, the “RE (relative error vs spiked)” value ([2]; ambient temperature 2 h, spiked 800 ng/mL) was −3.6% and the “Measured (mean ± SD)” value ([2]; ambient temperature 2 h, spiked 800 ng/mL, beagle dog plasma) was 771.45 ± 23.94 ng/mL. For the same compound, the “Measured (mean ± SD)” value ([2]; autosampler 24 h (extracted samples), spiked 20 ng/mL) was 20.10 ± 1.22 ng/mL, the “Measured (mean ± SD)” value ([2]; autosampler 24 h (extracted samples), spiked 800 ng/mL) was 772.49 ± 29.64 ng/mL and the “RE (relative error vs spiked)” value ([2]; autosampler 24 h, spiked 20 ng/mL) was 0.5%. For the same compound, the “RE (relative error vs spiked)” value ([2]; autosampler 24 h, spiked 800 ng/mL) was −3.4%, the “long-term stability in plasma (in words)” value [2] was “stable” and the “long-term stability in plasma (in words)” value ([2]; listed as sodiusm danshensu) was “Excellent stability”. The “ambient temperature stability in plasma (in words)” value ([2]; beagle dog plasma, ambient temperature for 2 h) was “Excellent stability”, the “autosampler stability (in words)” value ([2]; extracted samples kept in the autosampler for 24 h) was “No degradation” and the “RE (relative error vs spiked)” value ([2]; long-term 20 days at −80 °C, spiked 20 ng/mL) was 2.5%. The “Measured (mean ± SD)” value ([2]; long-term 20 days at −80 °C, spiked 20 ng/mL, beagle dog plasma) was 20.50 ± 1.13 ng/mL, the “RE (relative error vs spiked)” value ([2]; long-term 20 days at −80 °C, spiked 800 ng/mL) was 3.1% and the “Measured (mean ± SD)” value ([2]; long-term 20 days at −80 °C, spiked 800 ng/mL, beagle dog plasma) was 825.29 ± 55.20 ng/mL. The “freeze-thaw stability, deviation of the concentration (in words)” value ([2]; three cycles of freezing and thawing) was “within the acceptable limit”, the “RE (relative error vs spiked)” value ([2]; three freeze-thaw cycles at −80 °C, spiked 20 ng/mL) was 7.2% and the “Measured (mean ± SD)” value ([2]; three freeze-thaw cycles at −80 °C, spiked 20 ng/mL, beagle dog plasma) was 21.45 ± 0.88 ng/mL. For the same compound, the “RE (relative error vs spiked)” value ([2]; three freeze-thaw cycles at −80 °C, spiked 800 ng/mL) was −0.2% and the “Measured (mean ± SD)” value ([2]; three freeze-thaw cycles at −80 °C, spiked 800 ng/mL, beagle dog plasma) was 798.54 ± 47.76 ng/mL.
